Assay results: patent publication US10864279B2, “Linker-drug and antibody-drug conjugate (ADC) employing the same” (priority 2016, dated 2020)

Columns and labels:
[1] = system: HER2 high-expressing breast cancer cell lines BT-474; experiment: Potency test, CCK-8 cell viability, BT-474; format: cell-based; details: for IC50: HER2 expression 3+, 72-120 hours; for In vitro selectivity MDA-MB-468/BT-474: ratio of IC50
Protocol: (§1) Cells were seeded in Corning CellBIND 96-well plates at densities of 6×10^3 cells/well. After incubation overnight at 37° C., 5% CO2 incubator, different concentrations of ADCs were added to the cells in serial dilutions. The cells were then incubated for 72-120 hours at 37° C., 5% CO2 incubator. After 72-120 hours, the old medium was removed and the cells were rinsed once and treated with 10-fold diluted CCK-8 reagent at 37° C. for 4 hours. The 96-well plates were put in the ELISA reader to measure the absorbance wavelength at 450 nm. Cell viability was calculated by the following equation: Cell Viability (%)=(Intensity of sample/Intensity of control)×100%. IC50 values of the ADC samples were calculated using SigmaPlot software.

[2] = system: Endometrial cancer tumor tissue, HER2-positive (+1); experiment: Tumor growth inhibition test: EC PDX model; format: in vivo, NODSCID mice; details: 10 mg/kg i.v.; Day 12, table head Day 0-60
Protocol: Endometrial cancer tumor tissue obtained from National Taiwan University was confirmed to be HER2-positive (+1). Tumor (2-3 mm diameter) was subcutaneous implanted to NODSCID mice to test the drug efficacy of ADCs in vivo. When the average tumor size was about 100 mm^3, mice were divided into groups and ADCs were intravenously injected (10 mL/kg B.W. injection volume).

[3] = system: HER2 moderate-expressing breast cancer cell lines JIMT-1 with anti-Herceptin drug resistance; experiment: Potency test, CCK-8 cell viability, JIMT-1; format: cell-based; details: for IC50: HER2 expression 2+ resistant, 72-120 hours; for In vitro selectivity MDA-MB-468/JIMT-1: ratio of IC50
Protocol: as §1

[4] = system: HER2-negative cell lines MDA-MB-468; experiment: Potency test, CCK-8 cell viability, MDA-MB-468; format: cell-based; details: HER2 expression negative, 72-120 hours
Protocol: as §1

[5] = Storage test in DMSO (LC-MS); format: physicochemical; details: 20 mM in DMSO, 0, 21, 92 and 99 days at −20° C.
Protocol: 20 mM Linker-drug 7 was stored in DMSO for 0, 21, 92 and 99 days at −20° C. LC-MS was used to analyze the purity of Linker-drug 7. The condition of LC-MS analysis was as follows.
Column: 4.6 mm×20 mm XBridge C18 column (Waters, Milford USA)
Linear gradient: 5 to 70% solvent B (100% acetonitrile with 0.1% formic acid)
Solvent A (0.1% formic acid in ddH2O)
Solvent B (100% acetonitrile with 0.1% formic acid)

ado-trastuzumab emtansine [Kadcyla]
IC50 ([1]; Table 3): 2.27 nM | IC50 ([1]; Table 4): 0.31 nM | In vitro selectivity MDA-MB-468/BT-474 ([1]; Table 3): 5.5 | In vitro selectivity MDA-MB-468/BT-474 ([1]; Table 4): 26.16 | TGI (%) ± SEM [2]: 26.5±10.1% | IC50 ([3]; Table 3): 15.5 nM | IC50 ([3]; Table 4): 27 nM | In vitro selectivity MDA-MB-468/JIMT-1 ([3]; Table 3): 1 | In vitro selectivity MDA-MB-468/JIMT-1 ([3]; Table 4): 0.30 | IC50 ([4]; Table 3): 15.2 nM | IC50 ([4]; Table 4): 8.11 nM

CC[C@H](C)[C@@H]([C@@H](CC(=O)C1CCCN1[C@H](OC)[C@@H](C)C(=O)N[C@H](Cc1ccccc1)C(=O)NCCc1ccc(NC(=O)[C@@H](CCCNC(N)=O)NC(=O)[C@@H](NC(=O)COCCOCCOCCOCCNC(=O)c2ccc(NC(=O)CCl)c(NC(=O)CCl)c2)C(C)C)cc1)OC)N(C)C(=O)[C@H](NC(=O)[C@H](C(C)C)N(C)C)C(C)C (stereo partly drawn) [Linker-drug 7]
storage stability (purity by LC-MS) [5]: stable when dissolved in DMSO
